Laboratory results from patent publication US4581355A, “3-indolecarboxamides for control of circulatory diseases” (Yoshitomi Pharmaceutical Industries, Ltd., priority 1983, dated 1986).

Experiments:
5-lipoxygenase = 5-lipoxygenase inhibition (method of Yoshimoto et al.); type: biochemical; conditions: read-out: 50% inhibitory concentration on 5-lipoxygenase
Source text: According to the pharmacological experiment conducted by the method of Yoshimoto et al. which is described in Biochem. Biophys. Res. Commum., vol. 107, p.

[1] = system: left ventricular pressure max dP/dt; experiment: cardiotonic activity (max dP/dt) in anesthetized dogs; type: in vivo; conditions: injected into left coronary artery
Experimental: The experiment on cardiotonic activity of the compounds of the present invention was conducted as follows: Dogs were anesthetized with sodium pentobarbital and heparin was administered intraveneously. The left venticular pressure and its max dP/dt were measured. Test compounds were injected at a volume of 10 to 30 μl into a catheter inserted into left coronary artery. The effects of test compounds on max dP/dt were shown as ED30, a dose required to increase max dP/dt by 30% of the effects of 0.1 μg is isoproterenol.

mice = experiment: acute toxicity in male mice; type: in vivo; conditions: observed for 5 days
Source text: The acute toxicity of the compounds of the present invention was studied in 5 male mice weighing 30 to 45 g.

central nervous system = experiment: sedative activity by electroencephalograms in rabbits; type: in vivo; conditions: from the intraperitoneal dose of 3 mg/kg

Row | Compound | IC50 (5-lipoxygenase) | ED30, dose required to increase max dP/dt by 30% of the effects of 0.1 μg isoproterenol [1] | other results
1 | Cc1[nH]c2ccc(O)cc2c1C(=O)NC1CCN(CCCc2ccccc2)CC1 [Example 3, 5-hydroxy-2-methyl-N-[1-(3-phenylpropyl)-4-piperidyl]indole-3-carboxamide] | 180 nM | 50 µg | 
2 | Cc1[nH]c2ccc(O)cc2c1C(=O)NC1CCN(CCc2ccccc2)CC1 [Example 2, 5-hydroxy-2-methyl-N-[1-(2-phenylethyl)-4-piperidyl]indole-3-carboxamide] | 440 nM |  | mortality (mice; oral 1000 mg/kg): All animals survived
3 | O=C(NC1CCN(CCc2c[nH]c3ccccc23)CC1)c1ccccc1 [indoramin, 3-[2-(4-benzamido-1-piperidyl)ethyl]indole, reference compound] |  |  | changes on electroencephalograms (sedative activity) (central nervous system): trend toward slow wave; mortality (mice; oral 500 mg/kg): all mice died
4 | Cc1[nH]c2ccc(O)cc2c1C(=O)NC1CCN(CCCc2ccc(O)cc2)CC1 [Example 35, 5-Hydroxy-2-methyl-N-[1-(3-(p-hydroxyphenyl)propyl)-4-piperidyl]indole-3-carboxamide] |  | 36 µg | 
5 | C[C@@H]1O[C@@H](O[C@H]2C[C@@H](O)[C@]3(CO)[C@H]4[C@H](O)C[C@]5(C)[C@@H](C6=CC(=O)OC6)CC[C@]5(O)[C@@H]4CC[C@]3(O)C2)[C@H](O)[C@H](O)[C@H]1O [ouabain, reference compound] |  | 60 µg | 
